Experimental data: patent publication US20240358692A1, “TREATMENT OF SCLERODERMA” (Aisa Pharma, Inc., priority 2023, published 2024)

Tests used:
participants with SSc-RP [1] = test: SHAQ - Visual Analog Scale - Finger Ulcers; format: in vivo, human; conditions: for SHAQ Visual Analogue Scale - Finger Ulcers, Change from Baseline, Mean (SD) / SHAQ Visual Analogue Scale - Finger Ulcers, Change from Baseline, Median / SHAQ Visual Analogue Scale - Finger Ulcers, In-Clinic Visit (Day 12), Mean (SD) / SHAQ Visual Analogue Scale - Finger Ulcers, In-Clinic Visit (Day 12), Median / SHAQ Visual Analogue Scale - Finger Ulcers, Percent Change from Baseline, Mean (SD) / SHAQ Visual Analogue Scale - Finger Ulcers, Percent Change from Baseline, Median: Day 12; for % improvement in VAS Digital Ulcers: SHAQ, mITT Part A
From the text: (§1) The standard, validated, patient reported outcome measures tool for SSc patients, the Scleroderma Health Assessment Questionnaire (SHAQ), will be used to assess the participant qualify of life. Details are attached in the Appendix. The participant quality of life will be scored, and a disability index calculated for each questionnaire completed by the patient at Screening and each in-clinic visit. The absolute change in participant quality of life from baseline to the end of each dosing period will be calculated similar to frequency data as before.
(§2) The standard, validated, patient reported outcome measures tool for SSc patients, the SHAQ, was collected at the time points specified in the study schedules (FIG. 2 and FIGS. 4A and 4B) to assess the participant's quality of life. The SHAQ included a Raynaud's VAS that will also be reported separately.

participants with SSc-RP [2] = test: SHAQ - Visual Analog Scale - Overall Disease Severity; format: in vivo, human; conditions: Any Cilnidipine (N = 17); Day 12; PP Population, Part A
From the text: as §1, §2

[3] = Any Cilnidipine (N = 17), PP Population, Part A
[4] = Cilnidipine 10 mg (N = 4), PP Population, Part A
[5] = Cilnidipine 20 mg (N = 4), PP Population, Part A
[6] = Pooled Cilnidipine 10 mg and Cilnidipine 10 mg + Tadalafil 5 mg, PP, Part A
[7] = Pooled Cilnidipine 20 mg and Cilnidipine 20 mg + Tadalafil 5 mg, PP, Part A
[8] = Pooled Cilnidipine (N = 8), PP Population, Part A
[9] = cilnidipine 10 mg (combination: + tadalafil 5 mg)
[10] = cilnidipine 20 mg (combination: + tadalafil 5 mg)

SMILES: COCCOC(=O)C1=C(C)NC(C)=C(C(=O)OC/C=C/c2ccccc2)C1c1cccc([N+](=O)[O-])c1 (centres unmarked) [Cilnidipine]
- SHAQ Visual Analogue Scale - Finger Ulcers, Change from Baseline, Mean (SD) (participants with SSc-RP [1]; [3]): −0.540 (1.0568)
- SHAQ Visual Analogue Scale - Finger Ulcers, Change from Baseline, Median (participants with SSc-RP [1]; [3]): −0.100
- SHAQ Visual Analogue Scale - Finger Ulcers, In-Clinic Visit (Day 12), Mean (SD) (participants with SSc-RP [1]; [3]): 0.731 (1.4351)
- SHAQ Visual Analogue Scale - Finger Ulcers, In-Clinic Visit (Day 12), Median (participants with SSc-RP [1]; [3]): 0.000
- SHAQ Visual Analogue Scale - Finger Ulcers, Percent Change from Baseline, Mean (SD) (participants with SSc-RP [1]; [3]): −33.91 (69.617) %
- SHAQ Visual Analogue Scale - Finger Ulcers, Percent Change from Baseline, Median (participants with SSc-RP [1]; [3]): −36.11%
- SHAQ Visual Analogue Scale - Finger Ulcers, Change from Baseline, Median (participants with SSc-RP [1]; [4]): −0.350
- SHAQ Visual Analogue Scale - Finger Ulcers, In-Clinic Visit (Day 12), Median (participants with SSc-RP [1]; [4]): 0.000
- SHAQ Visual Analogue Scale - Finger Ulcers, In-Clinic Visit (Day 12), Median (participants with SSc-RP [1]; Cilnidipine 10 mg, PP Population Part A, sensitivity analysis): 0.000
- SHAQ Visual Analogue Scale - Finger Ulcers, Change from Baseline, Median (participants with SSc-RP [1]; [5]): 0.000
- SHAQ Visual Analogue Scale - Finger Ulcers, In-Clinic Visit (Day 12), Median (participants with SSc-RP [1]; [5]): 0.350
- % improvement in VAS Digital Ulcers (participants with SSc-RP [1]; Cilnidipine 20 mg (n = 3)): 35%
- SHAQ Burden of Finger Ulcers, mean % change (participants with SSc-RP [1]; Cilnidipine 20 mg (n = 3), minus = improvement, Table A*): −17%
- SHAQ Visual Analogue Scale - Finger Ulcers, In-Clinic Visit (Day 12), Mean (participants with SSc-RP [1]; Pooled Cilnidipine 10 mg and Cilnidipine 10 mg + Tadalafil 5 mg (N = 9), Modified ITT Population - Part A): 0.389
- SHAQ VAS Finger Ulcers, Change from Baseline, Max (participants with SSc-RP [1]; [6]): 0.00
- SHAQ VAS Finger Ulcers, Change from Baseline, Min (participants with SSc-RP [1]; [6]): −1.00,
- SHAQ VAS Finger Ulcers, Change from Baseline, Q1 (participants with SSc-RP [1]; [6]): −0.500,
- SHAQ VAS Finger Ulcers, Change from Baseline, Q3 (participants with SSc-RP [1]; [6]): 0.000
- SHAQ VAS Finger Ulcers, Day 12, Max (participants with SSc-RP [1]; [6]): 1.50
- SHAQ VAS Finger Ulcers, Day 12, Min (participants with SSc-RP [1]; [6]): 0.00,
- SHAQ VAS Finger Ulcers, Day 12, Q1 (participants with SSc-RP [1]; [6]): 0.000,
- SHAQ VAS Finger Ulcers, Day 12, Q3 (participants with SSc-RP [1]; [6]): 0.700
- SHAQ VAS Finger Ulcers, Percent Change from Baseline, Max (participants with SSc-RP [1]; [6]): 0.0
- SHAQ VAS Finger Ulcers, Percent Change from Baseline, Min (participants with SSc-RP [1]; [6]): −100.0,
- SHAQ VAS Finger Ulcers, Percent Change from Baseline, Q1 (participants with SSc-RP [1]; [6]): −100.00,
- SHAQ VAS Finger Ulcers, Percent Change from Baseline, Q3 (participants with SSc-RP [1]; [6]): −12.50
- SHAQ VAS Finger Ulcers, Change from Baseline, Max (participants with SSc-RP [1]; [7]): 0.40
- SHAQ VAS Finger Ulcers, Change from Baseline, Min (participants with SSc-RP [1]; [7]): −3.20,
- SHAQ VAS Finger Ulcers, Change from Baseline, Q1 (participants with SSc-RP [1]; [7]): −2.800,
- SHAQ VAS Finger Ulcers, Change from Baseline, Q3 (participants with SSc-RP [1]; [7]): 0.000
- SHAQ VAS Finger Ulcers, Day 12, Max (participants with SSc-RP [1]; [7]): 5.60
- SHAQ VAS Finger Ulcers, Day 12, Median (participants with SSc-RP [1]; [7]): 0.000
- SHAQ VAS Finger Ulcers, Day 12, Min (participants with SSc-RP [1]; [7]): 0.00,
- SHAQ VAS Finger Ulcers, Day 12, Q1 (participants with SSc-RP [1]; [7]): 0.000,
- SHAQ VAS Finger Ulcers, Day 12, Q3 (participants with SSc-RP [1]; [7]): 1.900
- SHAQ VAS Finger Ulcers, Percent Change from Baseline, Max (participants with SSc-RP [1]; [7]): 133.3
- SHAQ VAS Finger Ulcers, Percent Change from Baseline, Min (participants with SSc-RP [1]; [7]): −100.0,
- SHAQ VAS Finger Ulcers, Percent Change from Baseline, Q1 (participants with SSc-RP [1]; [7]): −81.37,
- SHAQ VAS Finger Ulcers, Percent Change from Baseline, Q3 (participants with SSc-RP [1]; [7]): 50.00
- SHAQ Visual Analogue Scale - Finger Ulcers, Change from Baseline, Mean (SD) (participants with SSc-RP [1]; [8]): −0.643 (1.2246)
- SHAQ Visual Analogue Scale - Finger Ulcers, Change from Baseline, Median (participants with SSc-RP [1]; [8]): 0.000
- SHAQ Visual Analogue Scale - Finger Ulcers, In-Clinic Visit (Day 12), Mean (SD) (participants with SSc-RP [1]; [8]): 0.463 (0.7170)
- SHAQ Visual Analogue Scale - Finger Ulcers, In-Clinic Visit (Day 12), Median (participants with SSc-RP [1]; [8]): 0.000
- SHAQ Visual Analogue Scale - Finger Ulcers, Percent Change from Baseline, Mean (SD) (participants with SSc-RP [1]; [8]): −17.08 (103.378) %
- SHAQ Visual Analogue Scale - Finger Ulcers, Percent Change from Baseline, Median (participants with SSc-RP [1]; [8]): −50.82%
- % improvement in VAS Digital Ulcers (participants with SSc-RP [1]; Pooled Cilnidipine (n = 7)): 19%
- SHAQ VAS Finger Ulcers, Change from Baseline, Max (participants with SSc-RP [1]; Pooled Cilnidipine, PP, Part A): 0.40
- SHAQ VAS Finger Ulcers, Change from Baseline, Min (participants with SSc-RP [1]; Pooled Cilnidipine, PP, Part A): −3.20,
- SHAQ VAS Finger Ulcers, Change from Baseline, Q1 (participants with SSc-RP [1]; Pooled Cilnidipine, PP, Part A): −1.000,
- SHAQ VAS Finger Ulcers, Change from Baseline, Q3 (participants with SSc-RP [1]; Pooled Cilnidipine, PP, Part A): 0.000
- SHAQ VAS Finger Ulcers, Day 12, Max (participants with SSc-RP [1]; Pooled Cilnidipine, PP, Part A): 1.90
- SHAQ VAS Finger Ulcers, Day 12, Min (participants with SSc-RP [1]; Pooled Cilnidipine, PP, Part A): 0.00,
- SHAQ VAS Finger Ulcers, Day 12, Q1 (participants with SSc-RP [1]; Pooled Cilnidipine, PP, Part A): 0.000,
- SHAQ VAS Finger Ulcers, Day 12, Q3 (participants with SSc-RP [1]; Pooled Cilnidipine, PP, Part A): 0.900
- SHAQ VAS Finger Ulcers, Percent Change from Baseline, Max (participants with SSc-RP [1]; Pooled Cilnidipine, PP, Part A): 133.3
- SHAQ VAS Finger Ulcers, Percent Change from Baseline, Min (participants with SSc-RP [1]; Pooled Cilnidipine, PP, Part A): −100.0,
- SHAQ VAS Finger Ulcers, Percent Change from Baseline, Q1 (participants with SSc-RP [1]; Pooled Cilnidipine, PP, Part A): −81.37,
- SHAQ VAS Finger Ulcers, Percent Change from Baseline, Q3 (participants with SSc-RP [1]; Pooled Cilnidipine, PP, Part A): 47.22
- VAS Finger Ulcers Change from Baseline Max (participants with SSc-RP [1]; [9]): 0.00
- VAS Finger Ulcers Change from Baseline Median (participants with SSc-RP [1]; [9]): −0.350
- VAS Finger Ulcers Change from Baseline Min (participants with SSc-RP [1]; [9]): −1.00
- VAS Finger Ulcers Change from Baseline Q1 (participants with SSc-RP [1]; [9]): −0.850
- VAS Finger Ulcers Change from Baseline Q3 (participants with SSc-RP [1]; [9]): 0.000
- VAS Finger Ulcers Day 12 Max (participants with SSc-RP [1]; [9]): 1.10
- VAS Finger Ulcers Day 12 Median (participants with SSc-RP [1]; [9]): 0.000
- VAS Finger Ulcers Day 12 Min (participants with SSc-RP [1]; [9]): 0.00
- VAS Finger Ulcers Day 12 Q1 (participants with SSc-RP [1]; [9]): 0.000
- VAS Finger Ulcers Day 12 Q3 (participants with SSc-RP [1]; [9]): 0.550
- VAS Finger Ulcers Percent Change from Baseline Mean (participants with SSc-RP [1]; [9]): −69.44%
- VAS Finger Ulcers Percent Change from Baseline Median (participants with SSc-RP [1]; [9]): −69.44%
- VAS Finger Ulcers Percent Change from Baseline Min (participants with SSc-RP [1]; [9]): −100.0%
- VAS Finger Ulcers Percent Change from Baseline Q1 (participants with SSc-RP [1]; [9]): −100.00%
- VAS Finger Ulcers Change from Baseline Max (participants with SSc-RP [1]; [10]): 0.40
- VAS Finger Ulcers Change from Baseline Mean (participants with SSc-RP [1]; [10]): −0.933
- VAS Finger Ulcers Change from Baseline Median (participants with SSc-RP [1]; [10]): 0.000
- VAS Finger Ulcers Change from Baseline Min (participants with SSc-RP [1]; [10]): −3.20
- VAS Finger Ulcers Change from Baseline Q1 (participants with SSc-RP [1]; [10]): −3.200
- VAS Finger Ulcers Change from Baseline Q3 (participants with SSc-RP [1]; [10]): 0.400
- VAS Finger Ulcers Day 12 Max (participants with SSc-RP [1]; [10]): 1.90
- VAS Finger Ulcers Day 12 Median (participants with SSc-RP [1]; [10]): 0.700
- VAS Finger Ulcers Day 12 Min (participants with SSc-RP [1]; [10]): 0.00
- VAS Finger Ulcers Day 12 Q1 (participants with SSc-RP [1]; [10]): 0.000
- VAS Finger Ulcers Day 12 Q3 (participants with SSc-RP [1]; [10]): 1.900
- VAS Finger Ulcers Percent Change from Baseline Max (participants with SSc-RP [1]; [10]): 133.3%
- VAS Finger Ulcers Percent Change from Baseline Mean (participants with SSc-RP [1]; [10]): 35.29%
- VAS Finger Ulcers Percent Change from Baseline Median (participants with SSc-RP [1]; [10]): 35.29%
- VAS Finger Ulcers Percent Change from Baseline Min (participants with SSc-RP [1]; [10]): −62.7%
- VAS Finger Ulcers Percent Change from Baseline Q1 (participants with SSc-RP [1]; [10]): −62.75%
- VAS Finger Ulcers Percent Change from Baseline Q3 (participants with SSc-RP [1]; [10]): 133.33%
- SHAQ Visual Analogue Scale - Overall Disease Severity, Change from Baseline, Mean (SD) (participants with SSc-RP [2]): −0.991 (1.0921)
- SHAQ Visual Analogue Scale - Overall Disease Severity, Change from Baseline, Median (participants with SSc-RP [2]): −1.100
- SHAQ Visual Analogue Scale - Overall Disease Severity, In-Clinic Visit (Day 12), Mean (SD) (participants with SSc-RP [2]): 2.203 (2.1532)
